Values after ≈ are worked out from the molar mass of the structure shown. Like-named read-outs stand apart in the source and are kept apart here.
How the values were obtained:
[1] = test system: E. coli CSH(RE45); test: microbe, parasite or virus in culture; type: cell-based; settings: Escherichia coli, 16 h, read-out: Minimum Inhibitory Concentration (MIC), *E. coli CSH(RE45), lactamase-producing strain; 10^6 CFU/ml
Summary of the method: (§1)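 Each organism, pre-grown overnight in Mueller Hinton broth, is inoculated at 10^6 CFU/ml onto Mueller Hinton agar series with increasing compound concentration; growth inhibition is scored after 16 h, 37° C., giving MIC (μg/ml).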

[2] = test system: E. coli CSH2 (RK1); test: microbe, parasite or virus in culture; type: cell-based; settings: Escherichia coli, 16 h, read-out: Minimum Inhibitory Concentration (MIC), *E. coli CSH2 (RK1), lactamase-producing strain; 10^6 CFU/ml
Summary of the method: as §1

[3] = test system: E. cloacae 963; test: in vitro antibacterial activity, agar plate dilution method (MIC); type: cell-based; settings: 10^6 CFU/ml
Summary of the method: as §1

[4] = test system: E. cloacae Nek 39; test: as above; type: cell-based; settings: Enterobacter cloacae, NEK39, 16 h, read-out: Minimum Inhibitory Concentration (MIC), *E. cloacae Nek 39, lactamase-producing strain; 10^6 CFU/ml
Summary of the method: as §1

[5] = test system: E. coli GN5482; test: as above; type: cell-based; settings: Escherichia coli, GN5482, 16 h
Summary of the method: as §1

[6] = test system: E. coli NIHJ JC2; test: as above; type: cell-based; settings: Escherichia coli, NIHJJC2, 16 h, read-out: Minimum Inhibitory Concentration (MIC), E. coli NIHJ JC2, 10^6 CFU/ml, 37° C.
Summary of the method: as §1

[7] = test system: K. oxytoca GN10650; test: as above; type: cell-based; settings: Klebsiella oxytoca, GN10650, 16 h, read-out: Minimum Inhibitory Concentration (MIC), *K. oxytoca GN10650, lactamase-producing strain; 10^6 CFU/ml
Summary of the method: as §1

[8] = test system: K. pneumoniae No. 42; test: as above; type: cell-based; settings: Klebsiella pneumoniae, NO.42, 16 h, read-out: Minimum Inhibitory Concentration (MIC), *K. pneumoniae No. 42, lactamase-producing strain; 10^6 CFU/ml
Summary of the method: as §1

[9] = test system: K. pneumoniae PCI-602; test: as above; type: cell-based; settings: Klebsiella pneumoniae, PCI602, 16 h, 10^6 CFU/ml
Summary of the method: as §1

[10] = test system: M. morganii GN5407; test: as above; type: cell-based; settings: Morganella morganii, GN5407, 16 h, read-out: Minimum Inhibitory Concentration (MIC), *M. morganii GN5407, lactamase-producing strain; 10^6 CFU/ml
Summary of the method: as §1

[11] = test system: P. vulgaris HX-19; test: as above; type: cell-based; settings: Proteus vulgaris, HX19, 16 h, read-out: Minimum Inhibitory Concentration (MIC)
Summary of the method: as §1

[12] = test system: P. vulgaris No. 33; test: as above; type: cell-based; settings: Proteus vulgaris, NO.33, 16 h, read-out: Minimum Inhibitory Concentration (MIC), *P. vulgaris No. 33, lactamase-producing strain; 10^6 CFU/ml
Summary of the method: as §1

[13] = test system: S. aureus 209P NIHJ-JC1; test: as above; type: cell-based; settings: Staphylococcus aureus, 16 h, read-out: Minimum Inhibitory Concentration (MIC)
Summary of the method: as §1

[14] = test system: S. marcescens IAM 1184; test: as above; type: cell-based; settings: Serratia marcescens, IAM1184, 16 h, S. marcescens IAM 1184; 10^6 CFU/ml; read-out: Minimum Inhibitory Concentration (MIC)
Summary of the method: as §1

[15] = test system: S. marcescens No. 16-2; test: as above; type: cell-based; settings: Serratia marcescens, NO.162, 16 h
Summary of the method: as §1

[16] = test system: Ps. aeruginosa AK 109; test: as above; type: cell-based, Pseudomonas aeruginosa; settings: Pseudomonas aeruginosa, AK109, 16 h, read-out: Minimum Inhibitory Concentration (MIC)
Summary of the method: as §1

[17] = test system: Ps. aeruginosa AKR17; test: as above; type: cell-based, Pseudomonas aeruginosa; settings: Pseudomonas aeruginosa, AKR17, 16 h, read-out: Minimum Inhibitory Concentration (MIC), Ps. aeruginosa AKR17; 10^6 CFU/ml
Summary of the method: as §1

[18] = test system: Ps. aeruginosa IF03445; test: as above; type: cell-based, Pseudomonas aeruginosa; settings: Pseudomonas aeruginosa, IF03445, 16 h, read-out: Minimum Inhibitory Concentration (MIC), Ps. aeruginosa IF03445; 10^6 CFU/ml
Summary of the method: as §1

[19] = test system: Ps. cepacia 23; test: as above; type: cell-based, Pseudomonas cepacia; settings: Burkholderia cepacia, 16 h; Ps. cepacia 23; 10^6 CFU/ml; read-out: Minimum Inhibitory Concentration (MIC)
Summary of the method: as §1

[20] = test system: A. calcoaceticus No. 4; test: as above; type: cell-based, Acinetobacter calcoaceticus; settings: Acinetobacter calcoaceticus, NO.4, 16 h, A. calcoaceticus No. 4; 10^6 CFU/ml; read-out: Minimum Inhibitory Concentration (MIC)
Summary of the method: as §1

[21] = test system: Enterobacter cloacae GN 5797; test: β-lactamase inducibility; type: cell-based; settings: antibiotic at 50, 10 and 1 μg/ml; cephaloridine as substrate
Description: The assay method for induction of β-lactamase by β-latam antibiotics was as follows:
The test organism, Enterobacter cloacae GN 5797, was grown overnight in Mueller Hinton broth (Dlfco Laboratories, Detroit, Mich.) at 37° C. The culture was diluted 10-fold into 20 ml of the flesh medium and incubated with shaking at 37° C. After 2 hours of incubation, antibiotics were added to final concentrations of 50 μg/ml, 10 μg/ml and 1 μg/ml, and the incubation was continued. At 1 hour intervals after the addition of antibiotic, 3 ml of sample was taken, and immediately added with 0.1 ml of 50 mM sodium azide. The cells were harvested and washed with 50 mM phosphate buffer (ph 7.0). The cells were suspended in 5 ml of 50 mM phosphate buffer and disrupted with a sonicater in an ice-water bath. The broken cells were centrifuged at 16,500 G for 40 minutes at 4° C., and the resulting supernatant fluid was used as the crude enzyme. β-Lactamase activity was determined by a sopectrophotometric method (Antmicrob. Agents Chemother. 17, 355-358, 1980) with cephaloridine as substrate. The concentration of protein was determined by the method of Lowry (J. Biol. Chem. 193, 265-275, 1951). […] As a representative example, the compound of EXAMPLE 50 was administered to mice by means of subcutaneous administration, and the concentration in the blood was measured.

[22] = read-out: Minimum Inhibitory Concentration (MIC)
[23] = Ps. aeruginosa AK 109, 10^6 CFU/ml
[24] = Enterobacter cloacae, 963, 16 h, read-out: Minimum Inhibitory Concentration (MIC), E. cloacae 963
[25] = read-out: Minimum Inhibitory Concentration (MIC), K. pneumoniae PCI-602
[26] = S. aureus 209P NIHJ-JC1, 10^6 CFU/ml, 37° C., 16 hours

Row | Structure (SMILES) | MIC [1] | MIC [2] | MIC [4] | MIC [6] | MIC [7] | MIC [8] | MIC [10] | MIC ([11]; P. vulgaris HX-19, 10^6 CFU/ml) | MIC [12] | MIC [14] | MIC [15, 22] | MIC [16, 23] | MIC [17] | MIC [18] | MIC [19] | MIC [20] | β-lactamase inducibility [21] | MIC [3, 24] | MIC [5, 22] | MIC [9, 25] | also measured
1 | CC(C)(O/N=C(\C(=O)N[C@@H]1C(=O)N2C(C(=O)O)=C(CSc3nnc(-c4ccc(O)c(O)c4)s3)CS[C@H]12)c1csc(N)n1)C(=O)O [Ex. 34] | < 0.006 µg/mL | < 0.006 µg/mL | 0.1 µg/mL (≈ 0.144 µM) | 0.1 µg/mL (≈ 0.144 µM) | 0.025 µg/mL (≈ 0.036 µM) | 0.0125 µg/mL (≈ 0.018 µM) | 0.05 µg/mL (≈ 0.0721 µM) | < 0.006 µg/mL | 0.025 µg/mL (≈ 0.036 µM) | 0.025 µg/mL (≈ 0.036 µM) | 0.1 µg/mL (≈ 0.144 µM) | 0.1 µg/mL (≈ 0.144 µM) | 1.56 µg/mL (≈ 2.25 µM) | 0.39 µg/mL (≈ 0.562 µM) | < 0.006 µg/mL | 0.05 µg/mL (≈ 0.0721 µM) | no substantial β-lactamase-inducing activity was observed |  |  |  | MIC ([3]; Enterobacter cloacae, 16 h, E. cloacae 963, read-out: Minimum Inhibitory Concentration (MIC)): 0.1 µg/mL (≈ 0.144 µM); MIC ([5]; read-out: Minimum Inhibitory Concentration (MIC), *E. coli GN5482, lactamase-producing strain, 10^6 CFU/ml): 0.78 µg/mL (≈ 1.12 µM); MIC ([9]; K. pneumoniae PCI-602, read-out: Minimum Inhibitory Concentration (MIC)): 0.0125 µg/mL (≈ 0.018 µM); MIC [13]: 12.5 µg/mL (≈ 18 µM)
2 | CC(C)(O/N=C(\C(=O)N[C@@H]1C(=O)N2C(C(=O)O)=C(CSc3ncc(-c4ccc(O)c(O)c4)o3)CS[C@H]12)c1csc(N)n1)C(=O)O [Ex. 64, disodium 7β-[2-(2-aminothiazol-4-yl)-2-(1-carboxylate-1-methylethoxyimino)acetamido]-3-[5-(3,4-dihydroxyphenyl)oxazol-2-yl]thiomethyl-3-cephem-4-carboxylate] | 0.025 µg/mL | 0.0125 µg/mL | 0.2 µg/mL | 0.78 µg/mL | 0.1 µg/mL | 0.05 µg/mL | 0.1 µg/mL |  | 0.025 µg/mL | 0.1 µg/mL |  |  | 1.56 µg/mL | 0.78 µg/mL | < 0.006 µg/mL | 0.2 µg/mL | no substantial β-lactamase-inducing activity was observed | 0.39 µg/mL | 3.12 µg/mL | 0.0125 µg/mL | MIC [11]: 0.0125 µg/mL; MIC [13, 26]: 25 µg/mL; MIC ([15]; read-out: Minimum Inhibitory Concentration (MIC), *S. marcescens No. 16-2, lactamase-producing strain, 10^6 CFU/ml): 1.56 µg/mL; MIC [16]: 0.39 µg/mL
3 | CC(C)(O/N=C(\C(=O)N[C@@H]1C(=O)N2C(C(=O)O)=C(CSc3nnc(-c4ccc(O)c(O)c4)o3)CS[C@H]12)c1csc(N)n1)C(=O)O [Ex. 11, disodium 7β-[2-(2-aminothiazol-4-yl)-(1-carboxylate-1-methylethoxyimino)acetamido]-3-[5(3,4-dihydroxyphenyl)-1,3,4-oxadiazol-2-yl]thiomethyl-3-cephem-4-carboxylate] | 1.56 µg/mL | < 0.006 µg/mL | 0.05 µg/mL | 0.1 µg/mL | 0.0125 µg/mL | 0.025 µg/mL | 0.05 µg/mL | < 0.006 µg/mL | 0.025 µg/mL | 0.0125 µg/mL | 0.39 µg/mL | 0.2 µg/mL | 1.56 µg/mL | 0.39 µg/mL | < 0.006 µg/mL | 0.05 µg/mL | no substantial β-lactamase-inducing activity was observed | 0.025 µg/mL | 0.39 µg/mL | < 0.006 µg/mL | MIC [13, 26]: 25 µg/mL
